Where two headings read alike, the source gives them in different places.
Experiments:
IRAK4 [1] = molecular target: T1, IRAK4 (Homo sapiens (Human), UniProt Q9NWZ3); experiment: IRAK4 Degradation HiBiT Assay; conditions: HiBiT-tagged Jurkat cells, 4 hrs; for Dmax: Jurkat; for DC50: read-out: Cellular IRAK4 HiBiT: DC50
Target sequence in this assay (Q9NWZ3 whole entry): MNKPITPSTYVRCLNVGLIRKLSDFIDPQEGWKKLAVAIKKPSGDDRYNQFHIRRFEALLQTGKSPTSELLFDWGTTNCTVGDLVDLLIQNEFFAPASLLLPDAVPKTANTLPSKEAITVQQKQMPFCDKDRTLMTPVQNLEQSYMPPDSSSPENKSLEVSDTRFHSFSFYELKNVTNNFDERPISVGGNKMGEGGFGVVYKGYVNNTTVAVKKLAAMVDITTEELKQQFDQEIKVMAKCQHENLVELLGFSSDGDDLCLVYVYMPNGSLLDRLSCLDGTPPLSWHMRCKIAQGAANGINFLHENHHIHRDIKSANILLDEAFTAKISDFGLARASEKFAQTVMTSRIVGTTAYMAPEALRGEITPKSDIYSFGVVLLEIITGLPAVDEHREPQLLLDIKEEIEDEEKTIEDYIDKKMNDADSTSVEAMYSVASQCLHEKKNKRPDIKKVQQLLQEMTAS

IRAK4 [2] = molecular target: T1, IRAK4; experiment: IRAK4 Biochemical HTRF Kinase Assay; conditions: read-out: IRAK4 HTRF biochemical: IC50
Method in brief: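 IC50 values derive from non-linear regression of sixteen concentrations in duplicate. Kinase reaction ran 90 min at ambient temperature after adding 5 μM STK-S1 substrate, 10 mM ATP and 10 mM MgCl2 (reaction-solution levels, pre-dilution to 10 μl); phospho-peptide detected by HTRF after 60 min.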
Target sequence in this assay (Q9NWZ3 whole entry, species assumed): as the sequence (Q9NWZ3 whole entry) above

[3] = read-out: Cellular IRAK4 HiBiT: Dmax, Table 5, multiple runs
[4] = read-out: Cellular IRAK4 HiBiT: Dmax, Table 4

| Compound | Dmax (IRAK4 [1]; [3]) [%] | DC50 (IRAK4 [1]; Table 5, multiple runs) [nM] | IC50 (IRAK4 [2]; Table 5, multiple runs) [nM] | Dmax (IRAK4 [1]; [4]) [%] | DC50 (IRAK4 [1]; Table 4) [nM] | IC50 (IRAK4 [2]; Table 4) [nM] |
| --- | --- | --- | --- | --- | --- | --- |
| CNc1cc(-c2ccc3cc(C#N)cnn23)ncc1-c1nnc([C@H]2CC[C@H](NC(=O)CCCOc3cc(-c4scnc4C)ccc3CNC(=O)[C@@H]3C[C@@H](O)CN3C(=O)[C@@H](NC(=O)C3(F)CC3)C(C)(C)C)CC2)s1 [Example 119, (2S,4R)—N-(2-(4-(((1r,4S)-4-(5-(6-(3-cyanopyrrolo[1,2-b]pyridazin-7-yl)-4-(methylamino)pyridin-3-yl)-1,3,4-thiadiazol-2-yl)cyclohexyl)amino)-4-oxobutoxy)-4-(4-methylthiazol-5-yl)benzyl)-1-((S)-2-(1-fluorocyclopropane-1-carboxamido)-3,3-dimethylbutanoyl)-4-hydroxypyrrolidine-2-carboxamide] | 117 | 116 | 2.2 | – | – | – |
| CNc1cc(-c2ccc3cc(C#N)cnn23)ncc1-c1nnc(N2CC3CCC(C2)N3C2CCN(C(=O)C[C@H](NC(=O)[C@@H]3C[C@@H](O)CN3C(=O)[C@@H](NC(=O)C3(F)CC3)C(C)(C)C)c3ccc(-c4scnc4C)cc3)CC2)s1 [Example 166, (2S,4R)—N-((1S)-3-(4-(3-(5-(6-(3-cyanopyrrolo[1,2-b]pyridazin-7-yl)-4-(methylamino)pyridin-3-yl)-1,3,4-thiadiazol-2-yl)-3,8-diazabicyclo[3.2.1]octan-8-yl)piperidin-1-yl)-1-(4-(4-methylthiazol-5-yl)phenyl)-3-oxopropyl)-1-((S)-2-(1-fluorocyclopropane-1-carboxamido)-3,3-dimethylbutanoyl)-4-hydroxypyrrolidine-2-carboxamide] | 114 | 67.7 | 1 | – | – | – |
| CNc1cc(-c2ccc3cc(C#N)cnn23)ncc1-c1nnc(C23CCC(NC(=O)[C@H]4CC[C@H]4C(=O)N[C@H](C(=O)N4C[C@H](O)C[C@H]4C(=O)N[C@@H](C)c4ccc(-c5scnc5C)cc4)C(C)(C)C)(CC2)CC3)s1 (mixture of isomers) [Example 144, (1RS,2SR)—N1-(4-(5-(6-(3-cyanopyrrolo[1,2-b]pyridazin-7-yl)-4-(methylamino)pyridin-3-yl)-1,3,4-thiadiazol-2-yl)bicyclo[2.2.2]octan-1-yl)-N2—((S)-1-((2S,4R)-4-hydroxy-2-(((S)-1-(4-(4-methylthiazol-5-yl)phenyl)ethyl)carbamoyl)pyrrolidin-1-yl)-3,3-dimethyl-1-oxobutan-2-yl)cyclobutane-1,2-dicarboxamide] | 89 | 429 | 1.5 | – | – | – |
| CC(C)Nc1cc(-c2ccc3cc(C#N)cnn23)ncc1-c1nnc(N2CCN(C(=O)CCCCCCCNc3ccc4c(c3)C(=O)N(C3CCC(=O)NC3=O)C4=O)CC2)s1 (stereo not drawn) [Example 5, 7-(5-(5-(4-(8-((2-(2,6-dioxopiperidin-3-yl)-1,3-dioxoisoindolin-5-yl)amino)octanoyl)piperazin-1-yl)-1,3,4-thiadiazol-2-yl)-4-(isopropylamino)pyridin-2-yl)pyrrolo[1,2-b]pyridazine-3-carbonitrile] | 57 | 71.2 | 3.9 | 57 | 84 | 3.8 |
| CNc1cc(-c2ccc3cc(C#N)cnn23)ncc1-c1nnc([C@H]2CC[C@H](NC(=O)C34CC(C(=O)N[C@H](C(=O)N5C[C@H](O)C[C@H]5C(=O)N[C@@H](C)c5ccc(-c6scnc6C)cc5)C(C)(C)C)(C3)C4)CC2)s1 [Example 101, N1-((1r,4S)-4-(5-(6-(3-cyanopyrrolo[1,2-b]pyridazin-7-yl)-4-(methylamino)pyridin-3-yl)-1,3,4-thiadiazol-2-yl)cyclohexyl)-N3-((S)-1-((2S,4R)-4-hydroxy-2-(((S)-1-(4-(4-methylthiazol-5-yl)phenyl)ethyl)carbamoyl)pyrrolidin-1-yl)-3,3-dimethyl-1-oxobutan-2-yl)bicyclo[1.1.1]pentane-1,3-dicarboxamide] | 117 | 42.2 | 2.4 | – | – | – |
| CNc1cc(-c2ccc3cc(C#N)cnn23)ncc1-c1nnc(N2CC3(CCN(C(=O)C4CCN(c5ccc6c(c5)C(=O)N(C5CCC(=O)NC5=O)C6=O)CC4)CC3)C2)s1 (stereo not drawn) [Example 176, 7-(5-(5-(7-(1-(2-(2,6-dioxopiperidin-3-yl)-1,3-dioxoisoindolin-5-yl)piperidine-4-carbonyl)-2,7-diazaspiro[3.5]nonan-2-yl)-1,3,4-thiadiazol-2-yl)-4-(methylamino)pyridin-2-yl)pyrrolo[1,2-b]pyridazine-3-carbonitrile] | 105 | 31.5 | 0.5 | – | – | – |
| CN[C@@H](C)C(=O)N[C@H](C(=O)N1C[C@@H](NC(=O)CCCCC(=O)N2CCN(c3nnc(-c4cnc(-c5ccc6cc(C#N)cnn56)cc4NC(C)C)s3)CC2)C[C@H]1C(=O)N[C@@H]1CCCc2ccccc21)C1CCCCC1 [Example 51, (2S,4S)-4-(6-(4-(5-(6-(3-cyanopyrrolo[1,2-b]pyridazin-7-yl)-4-(isopropylamino)pyridin-3-yl)-1,3,4-thiadiazol-2-yl)piperazin-1-yl)-6-oxohexanamido)-1-((S)-2-cyclohexyl-2-((S)-2-(methylamino)propanamido)acetyl)-N—((R)-1,2,3,4-tetrahydronaphthalen-1-yl)pyrrolidine-2-carboxamide] | 47 | 502 | 2 | 48 | 638 | 2 |
| CNc1cc(-c2ccc3cc(C#N)cnn23)ncc1-c1nnc(C23CCC(NC(=O)CCOCCOCCOCCNc4cccc5c4C(=O)N(C4CCC(=O)NC4=O)C5=O)(CC2)CC3)s1 (stereo not drawn) [Example 110, N-(4-(5-(6-(3-cyanopyrrolo[1,2-b]pyridazin-7-yl)-4-(methylamino)pyridin-3-yl)-1,3,4-thiadiazol-2-yl)bicyclo[2.2.2]octan-1-yl)-3-(2-(2-(2-((2-(2,6-dioxopiperidin-3-yl)-1,3-dioxoisoindolin-4-yl)amino)ethoxy)ethoxy)ethoxy)propanamide] | 93 | 34.2 | 0.7 | – | – | – |
| CC(C)Nc1cc(-c2ccc3cc(C#N)cnn23)ncc1-c1nnc(N2CCN(C(=O)CN3CCC4(CC3)CN(c3ccc5c(c3)C(=O)N(C3CCC(=O)NC3=O)C5=O)C4)CC2)s1 (stereo not drawn) [Example 15, 7-(5-(5-(4-(2-(2-(2-(2,6-dioxopiperidin-3-yl)-1,3-dioxoisoindolin-5-yl)-2,7-diazaspiro[3.5]nonan-7-yl)acetyl)piperazin-1-yl)-1,3,4-thiadiazol-2-yl)-4-(isopropylamino)pyridin-2-yl)pyrrolo[1,2-b]pyridazine-3-carbonitrile] | 85 | 86.9 | 1 | 81 | 82.7 | 1 |
| CNc1cc(-c2ccc3cc(C#N)cnn23)ncc1-c1nnc(C23CCC(NC(=O)CC(C)(C)C(=O)N[C@H](C(=O)N4C[C@H](O)C[C@H]4C(=O)N[C@@H](C)c4ccc(-c5scnc5C)cc4)C(C)(C)C)(CC2)CC3)s1 [Example 155, N4-(4-(5-(6-(3-cyanopyrrolo[1,2-b]pyridazin-7-yl)-4-(methylamino)pyridin-3-yl)-1,3,4-thiadiazol-2-yl)bicyclo[2.2.2]octan-1-yl)-N1—((S)-1-((2S,4R)-4-hydroxy-2-(((S)-1-(4-(4-methylthiazol-5-yl)phenyl)ethyl)carbamoyl)pyrrolidin-1-yl)-3,3-dimethyl-1-oxobutan-2-yl)-2,2-dimethylsuccinamide] | 90 | 519 | 2.4 | – | – | – |
| CNc1cc(-c2ccc3cc(C#N)cnn23)ncc1-c1nnc([C@H]2CC[C@@H](NC(=O)CN3CCC4(CC3)CN(c3ccc5c(c3)C(=O)N(C3CCC(=O)NC3=O)C5=O)C4)CC2)s1 (stereo partly drawn) [Example 127, N-((1s,4s)-4-(5-(6-(3-cyanopyrrolo[1,2-b]pyridazin-7-yl)-4-(methylamino)pyridin-3-yl)-1,3,4-thiadiazol-2-yl)cyclohexyl)-2-(2-(2-(2,6-dioxopiperidin-3-yl)-1,3-dioxoisoindolin-5-yl)-2,7-diazaspiro[3.5]nonan-7-yl)acetamide] | 58 | 187 | 0.8 | – | – | – |
| CNc1cc(-c2ccc3cc(C#N)cnn23)ncc1-c1nnc(N2CC3(CCN(C(=O)CN4CCN(c5ccc6c(c5)C(=O)N(C5CCC(=O)NC5=O)C6=O)CC4)CC3)C2)s1 (stereo not drawn) [Example 177, 7-(5-(5-(7-(2-(4-(2-(2,6-dioxopiperidin-3-yl)-1,3-dioxoisoindolin-5-yl)piperazin-1-yl)acetyl)-2,7-diazaspiro[3.5]nonan-2-yl)-1,3,4-thiadiazol-2-yl)-4-(methylamino)pyridin-2-yl)pyrrolo[1,2-b]pyridazine-3-carbonitrile] | 105 | 14.8 | 0.5 | – | – | – |
| CC(C)Nc1cc(-c2ccc3cc(C#N)cnn23)ncc1-c1nnc(N2CCN(C(=O)CCOCCNc3ccc4c(c3)C(=O)N(C3CCC(=O)NC3=O)C4=O)CC2)s1 (stereo not drawn) [Example 10, 7-(5-(5-(4-(3-(2-((2-(2,6-dioxopiperidin-3-yl)-1,3-dioxoisoindolin-5-yl)amino)ethoxy)propanoyl)piperazin-1-yl)-1,3,4-thiadiazol-2-yl)-4-(isopropylamino)pyridin-2-yl)pyrrolo[1,2-b]pyridazine-3-carbonitrile] | 103 | 49.1 | 1 | 103 | 49.1 | 1 |
| CNc1cc(-c2ccc3cc(C#N)cnn23)ncc1-c1nnc([C@H]2CC[C@H](NC(=O)CCCCCNc3cccc4c3C(=O)N(C3CCC(=O)NC3=O)C4=O)CC2)s1 (stereo partly drawn) [Example 66, N-((1r,4r)-4-(5-(6-(3-cyanopyrrolo[1,2-b]pyridazin-7-yl)-4-(methylamino)pyridin-3-yl)-1,3,4-thiadiazol-2-yl)cyclohexyl)-6-((2-(2,6-dioxopiperidin-3-yl)-1,3-dioxoisoindolin-4-yl)amino)hexanamide] | 54 | 11.2 | 1.6 | – | – | – |
